We go through 10 compounds from ChEMBL document CHEMBL2073784, “Involvement of organic anion transporting polypeptides in the transport of troglitazone sulfate: implications for understanding troglitazone hepatotoxicity” (Drug Metab Dispos, 2004).

Counter-ions that a name gives are not always drawn.

For data set [1], the target named is T1, OATP-C (OATP1B1, SLCO1B1) (Homo sapiens, UniProt Q9Y6L6).
T1 sequence (Q9Y6L6 whole entry): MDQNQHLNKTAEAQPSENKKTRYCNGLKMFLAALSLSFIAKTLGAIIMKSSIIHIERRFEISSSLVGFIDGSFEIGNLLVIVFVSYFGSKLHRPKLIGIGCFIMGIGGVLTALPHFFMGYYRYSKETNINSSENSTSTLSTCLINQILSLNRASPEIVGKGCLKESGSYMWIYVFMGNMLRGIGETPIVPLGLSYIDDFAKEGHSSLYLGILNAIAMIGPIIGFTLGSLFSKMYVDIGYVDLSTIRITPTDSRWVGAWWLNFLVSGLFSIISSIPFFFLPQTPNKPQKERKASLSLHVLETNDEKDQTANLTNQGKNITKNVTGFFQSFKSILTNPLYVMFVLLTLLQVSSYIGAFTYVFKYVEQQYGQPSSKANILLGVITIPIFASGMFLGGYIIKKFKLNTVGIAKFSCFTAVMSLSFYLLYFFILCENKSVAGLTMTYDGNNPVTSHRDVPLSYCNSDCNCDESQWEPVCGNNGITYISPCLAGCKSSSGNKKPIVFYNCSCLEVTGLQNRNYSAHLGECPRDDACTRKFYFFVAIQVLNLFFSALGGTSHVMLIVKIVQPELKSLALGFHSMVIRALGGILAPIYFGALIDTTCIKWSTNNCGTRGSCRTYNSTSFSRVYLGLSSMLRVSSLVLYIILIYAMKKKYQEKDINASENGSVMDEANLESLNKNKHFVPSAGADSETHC
Briefly: TP_TRANSPORTER: inhibition of estrone-3-sulfate uptake (Estrone-3-sulfate: 9.2 nM) by Troglitazone sulfate at a concentration of 10uM in OATP-C-expressing Xenopus oocytes. In kind it is functional, cell-based, Oocyte. The settings on record: xenopus laevis, probe estrone-3-sulfate.

Data set [2] concerns the target T2, OATP8 (OATP1B3, SLCO1B3) (Homo sapiens, UniProt Q9NPD5).
T2 sequence (Q9NPD5 whole entry): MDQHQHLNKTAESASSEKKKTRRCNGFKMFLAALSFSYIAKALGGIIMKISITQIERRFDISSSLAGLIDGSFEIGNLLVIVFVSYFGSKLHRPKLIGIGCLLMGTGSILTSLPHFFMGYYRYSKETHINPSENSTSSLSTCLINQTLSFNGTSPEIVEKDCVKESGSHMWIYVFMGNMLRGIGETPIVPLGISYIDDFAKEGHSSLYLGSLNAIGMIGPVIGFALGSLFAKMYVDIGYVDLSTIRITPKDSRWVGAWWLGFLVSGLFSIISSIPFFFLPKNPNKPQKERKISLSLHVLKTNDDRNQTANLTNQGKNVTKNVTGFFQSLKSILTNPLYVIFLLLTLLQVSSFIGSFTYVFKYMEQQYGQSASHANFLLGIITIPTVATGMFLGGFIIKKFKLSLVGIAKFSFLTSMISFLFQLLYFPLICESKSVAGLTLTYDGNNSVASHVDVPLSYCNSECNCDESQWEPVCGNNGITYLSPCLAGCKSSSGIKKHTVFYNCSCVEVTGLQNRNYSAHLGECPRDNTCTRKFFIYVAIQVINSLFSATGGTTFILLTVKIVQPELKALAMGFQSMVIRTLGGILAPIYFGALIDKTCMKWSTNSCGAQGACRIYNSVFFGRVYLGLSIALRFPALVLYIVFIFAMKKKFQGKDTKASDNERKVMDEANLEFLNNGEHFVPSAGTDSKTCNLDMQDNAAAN
Briefly: TP_TRANSPORTER: inhibition of estrone-3-sulfate uptake (Estrone-3-sulfate: 9.2 nM) by Troglitazone sulfate at a concentration of 10uM in OATP8-expressing Xenopus oocytes. In kind it is functional, cell-based, Oocyte. The settings on record: xenopus laevis, Xenopus laevis oocytes expressing OATP8, probe estrone-3-sulfate.

Data set [3] addresses T3, Solute carrier organic anion transporter family member 1B1 (Homo sapiens, UniProt Q9Y6L6).
T3 sequence (Q9Y6L6 whole entry): T1 sequence (Q9Y6L6 whole entry)
Briefly: TP_TRANSPORTER: cell accumulation in OATP-C-expressing Xenopus oocytes. It counts as functional, cell-based. The settings on record: xenopus laevis, oocyte.

For data set [4], the target named is T1, OATP-C (OATP1B1, SLCO1B1). Briefly: TP_TRANSPORTER: inhibition of estrone-3-sulfate uptake (Estrone-3-sulfate: 9.2 nM) by Troglitazone glucuronide at a concentration of 10uM in OATP-C-expressing Xenopus oocytes. In kind it is functional, cell-based, Oocyte. The conditions noted are these: xenopus laevis, probe estrone-3-sulfate.
For data set [5], the target named is T1, OATP-C (OATP1B1, SLCO1B1). Briefly: TP_TRANSPORTER: inhibition of estrone-3-sulfate uptake (Estrone-3-sulfate: 9.2 nM) by Rosiglitazone at a concentration of 10uM in OATP-C-expressing Xenopus oocytes. It counts as functional, cell-based, Oocyte. The conditions noted are these: xenopus laevis, probe estrone-3-sulfate.
In data set [6] the target is T1, OATP-C (OATP1B1, SLCO1B1). As to the kind of experiment: TP_TRANSPORTER: inhibition of estrone-3-sulfate uptake (Estrone-3-sulfate: 9.2 nM) by Pioglitazone at a concentration of 10uM in OATP-C-expressing Xenopus oocytes. It counts as functional, cell-based, Oocyte. The conditions noted are these: xenopus laevis, probe estrone-3-sulfate.
Data set [7] deals with T2, OATP8 (OATP1B3, SLCO1B3). As to the kind of experiment: TP_TRANSPORTER: inhibition of estrone-3-sulfate uptake (Estrone-3-sulfate: 9.2 nM) by Pioglitazone at a concentration of 10uM in OATP8-expressing Xenopus oocytes. It counts as functional, cell-based, Oocyte. The conditions noted are these: xenopus laevis, Xenopus laevis oocytes expressing OATP8, probe estrone-3-sulfate.

Data set [8] deals with T1, OATP-C (OATP1B1, SLCO1B1). Briefly: TP_TRANSPORTER: inhibition of estrone-3-sulfate uptake (Estrone-3-sulfate: 9.2 nM) by Troglitazone at a concentration of 10uM in OATP-C-expressing Xenopus oocytes. In kind it is functional, cell-based, Oocyte. The settings on record: xenopus laevis, probe estrone-3-sulfate.
In data set [9] the target is T4, Solute carrier organic anion transporter family member 2B1 (Homo sapiens, UniProt O94956).
T4 sequence (O94956 whole entry): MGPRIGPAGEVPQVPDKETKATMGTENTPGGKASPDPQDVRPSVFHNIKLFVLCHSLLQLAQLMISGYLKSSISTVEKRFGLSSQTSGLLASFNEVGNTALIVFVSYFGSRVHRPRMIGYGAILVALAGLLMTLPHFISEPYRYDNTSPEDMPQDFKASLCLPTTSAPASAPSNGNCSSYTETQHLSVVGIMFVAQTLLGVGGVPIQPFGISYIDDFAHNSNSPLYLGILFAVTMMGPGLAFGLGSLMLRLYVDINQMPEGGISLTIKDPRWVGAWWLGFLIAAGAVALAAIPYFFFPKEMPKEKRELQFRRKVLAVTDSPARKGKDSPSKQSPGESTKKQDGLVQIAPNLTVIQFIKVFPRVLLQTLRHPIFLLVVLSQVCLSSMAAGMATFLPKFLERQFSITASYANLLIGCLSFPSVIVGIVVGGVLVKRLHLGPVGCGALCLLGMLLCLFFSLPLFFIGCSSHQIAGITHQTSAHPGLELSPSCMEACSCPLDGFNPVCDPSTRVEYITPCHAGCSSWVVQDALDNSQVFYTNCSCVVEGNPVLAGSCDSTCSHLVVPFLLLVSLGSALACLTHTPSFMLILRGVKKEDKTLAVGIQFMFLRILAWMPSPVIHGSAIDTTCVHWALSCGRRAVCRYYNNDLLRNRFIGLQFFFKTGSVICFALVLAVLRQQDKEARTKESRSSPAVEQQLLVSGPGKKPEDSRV
Briefly: TP_TRANSPORTER: uptake of SN-38 at a concentration of 0.10uL/oocyte in Xenopus laevis oocytes. In kind it is functional, cell-based.

The target in data set [10] is T3, Solute carrier organic anion transporter family member 1B1. Briefly: TP_TRANSPORTER: inhibition of E1S uptake (SN38 10 u M) in OATP1B1-expressing HEK293 cells. In kind it is functional, cell-based. The settings on record: hek293, 10 µM. The arrangement: scale not given: the % may be the effect or the level left.
Data set [11] has the same target. Briefly: TP_TRANSPORTER: uptake in OATP1B1-expressing HEK293 cell. In kind it is functional, cell-based.
In data set [12] the target is T5, Solute carrier organic anion transporter family member 1B3 (Homo sapiens, UniProt Q9NPD5).
T5 sequence (Q9NPD5 whole entry): T2 sequence (Q9NPD5 whole entry)
As to the kind of experiment: TP_TRANSPORTER: uptake of SN-38 at a concentration of 0.09uL/oocyte in Xenopus laevis oocytes. It counts as functional, cell-based.

Data set [13] concerns the target T3, Solute carrier organic anion transporter family member 1B1. Briefly: TP_TRANSPORTER: uptake in OATP1B1-expressing HEK293 cells. It counts as functional, cell-based.
Data set [14] concerns the target T6, OATP1B1 (SLCO1B1) (Homo sapiens, UniProt Q9Y6L6).
T6 sequence (Q9Y6L6 whole entry): T1 sequence (Q9Y6L6 whole entry)
Briefly: TP_TRANSPORTER: inhibition of Estrone-3-sulfate uptake(Estrone-3-sulfate: 9.2nM) in Xenopus laevis oocytes. The settings on record: probe estrone-3-sulfate. In kind it is functional, cell-based, Oocyte. The arrangement: scale not given: the % may be the effect or the level left.

In data set [15] the target is T3, Solute carrier organic anion transporter family member 1B1. As to the kind of experiment: TP_TRANSPORTER: uptake of SN-38 at a concentration of 0.16uL/oocyte in Xenopus laevis oocytes. It counts as functional, cell-based.
Data set [16] concerns the target T6, OATP1B1 (SLCO1B1). As to the kind of experiment: TP_TRANSPORTER: inhibition of E1S uptake (irinotecan 10 u M) in OATP1B1-expressing HEK293 cells. It counts as functional, cell-based. The arrangement: scale not given: the % may be the effect or the level left. The conditions noted are these: HEK293 cells expressing OATP1B1, probe estrone-3-sulfate (E1S), read-out: Activity.

The target in data set [17] is T1, OATP-C (OATP1B1, SLCO1B1). Briefly: TP_TRANSPORTER: inhibition of estrone-3-sulfate uptake (Estrone-3-sulfate: 9.2 nM) by Quinone Form at a concentration of 10uM in OATP-C-expressing Xenopus oocytes. It counts as functional, cell-based, Oocyte. The settings on record: xenopus laevis, probe estrone-3-sulfate.
For data set [18], the target named is T2, OATP8 (OATP1B3, SLCO1B3). As to the kind of experiment: TP_TRANSPORTER: inhibition of estrone-3-sulfate uptake (Estrone-3-sulfate: 9.2 nM) by Quinone Form at a concentration of 10uM in OATP8-expressing Xenopus oocytes. It counts as functional, cell-based, Oocyte. The conditions noted are these: xenopus laevis, Xenopus laevis oocytes expressing OATP8, probe estrone-3-sulfate.

Data set [19] concerns the target T5, Solute carrier organic anion transporter family member 1B3. As to the kind of experiment: TP_TRANSPORTER: cell accumulation in OATP8-expressing Xenopus oocytes. In kind it is functional, cell-based. The settings on record: xenopus laevis, oocyte.
Data set [20] deals with T3, Solute carrier organic anion transporter family member 1B1. As to the kind of experiment: TP_TRANSPORTER: inhibition of E1S uptake (SN38 G 10 u M) in OATP1B1-expressing HEK293 cells. In kind it is functional, cell-based. The conditions noted are these: hek293, 10 µM.

As for `Cc1c(C)c2c(c(C)c1OS(=O)(=O)O)CCC(C)(COc1ccc(CC3SC(=O)NC3=O)cc1)O2` (stereo not given) [TROGLITAZONE SULFATE], the inhibition (usually how much of the control response was suppressed) at 10 µM was found to be 5% in [1] and 20% in [2]. Moreover, the Activity entry in data set [3] was “substrate []”.
For `Cc1c(C)c2c(c(C)c1O[C@@H]1O[C@H](C(=O)O)[C@@H](O)[C@H](O)[C@H]1O)CCC(C)(COc1ccc(CC3SC(=O)NC3=O)cc1)O2` (stereo not given in full) [TROGLITAZONE GLUCURONIDE], in [4], the inhibition at 10 µM came to 30%.
Regarding `CN(CCOc1ccc(CC2SC(=O)NC2=O)cc1)c1ccccn1` (stereo not given) [ROSIGLITAZONE], in data set [5], the inhibition at 10 µM was found to be 60%.
Regarding `CCc1ccc(CCOc2ccc(CC3SC(=O)NC3=O)cc2)nc1` (stereo not given) [PIOGLITAZONE], the inhibition at 10 µM in data set [6] was found to be 70%; in data set [7], 65%.
On to `Cc1c(C)c2c(c(C)c1O)CCC(C)(COc1ccc(CC3SC(=O)NC3=O)cc1)O2` (stereo not given) [TROGLITAZONE], for which, in [8], testing at 10 µM gave an inhibition of 35%.
Take `CCc1c2c(nc3ccc(O)cc13)-c1cc3c(c(=O)n1C2)COC(=O)[C@]3(O)CC` [7-ETHYL-10-HYDROXYCAMPTOTHECIN]: the Activity entry was “is not a substrate [-]” in data set [9]; 50% in [10]; “substrate [+]” in data set [11]; “is not a substrate [-]” in [12]; “substrate []” in data set [13]; 85% in data set [14]. Besides, the Activity result in data set [15] was “substrate [+]”.
Turning to `CCc1c2c(nc3ccc(OC(=O)N4CCC(N5CCCCC5)CC4)cc13)-c1cc3c(c(=O)n1C2)COC(=O)[C@]3(O)CC` [IRINOTECAN], the Activity result is “is not a substrate [-]” in data set [11] and 60% in data set [14]. For the same compound, in [16], the activity at 10 µM is 60%.
Turning to `CC1=CC(=O)C(C)=C(CCC(C)(C)COc2ccc(CC3SC(=O)NC3=O)cc2)C1=O` (stereo not given) [QUINONE FORM], the values for the inhibition at 10 µM in data set [17] and in data set [18] were 20% and 60%, respectively.
`C[C@]12CC[C@@H]3c4ccc(OS(=O)(=O)O)cc4CC[C@H]3[C@@H]1CCC2=O` [ESTRONE SULFURIC ACID]: the Activity result in data set [19] and in data set [3] was “substrate []” each time.
For `CCc1c2c(nc3ccc(OC[C@@H]4O[C@H](C(=O)O)[C@@H](O)[C@H](O)[C@H]4O)cc13)-c1cc3c(c(=O)n1C2)COC(=O)[C@]3(O)CC`, the Activity entry in [20] was “is not an inhibitor [-]”; in data set [11] it was “is not a substrate [-]”; in data set [14] it was 45%.
